One block for each molecule: values may come before it.
How the values were obtained:
[1] = system: B16-F10 mouse melanoma tumors; test: B16-F10 syngeneic tumor model; type: in vivo, athymic NCr nu/nu male mice; conditions: 10 mg/kg IP twice weekly
EGFR = EGFR (Homo sapiens, UniProt P00533); test: Phosphotyrosine ELISA cytoblot, EGFR inhibition in A431 cells; conditions: for EGFR inhibition improved, fold compared to the corresponding 2-amino analog: 14 vs 8, 15 vs 9, 17 vs 11
[2] = system: chicken embryo chorioallantoic membrane (CAM); test: CAM assay of angiogenesis; conditions: in vivo
[3] = Whole animal toxicity assay; type: in vivo
VEGFR-2 = VEGFR-2 (Homo sapiens, UniProt P35968); test: Phosphotyrosine ELISA cytoblot, VEGFR-2
Sequence of VEGFR-2 (P35968 20-1356): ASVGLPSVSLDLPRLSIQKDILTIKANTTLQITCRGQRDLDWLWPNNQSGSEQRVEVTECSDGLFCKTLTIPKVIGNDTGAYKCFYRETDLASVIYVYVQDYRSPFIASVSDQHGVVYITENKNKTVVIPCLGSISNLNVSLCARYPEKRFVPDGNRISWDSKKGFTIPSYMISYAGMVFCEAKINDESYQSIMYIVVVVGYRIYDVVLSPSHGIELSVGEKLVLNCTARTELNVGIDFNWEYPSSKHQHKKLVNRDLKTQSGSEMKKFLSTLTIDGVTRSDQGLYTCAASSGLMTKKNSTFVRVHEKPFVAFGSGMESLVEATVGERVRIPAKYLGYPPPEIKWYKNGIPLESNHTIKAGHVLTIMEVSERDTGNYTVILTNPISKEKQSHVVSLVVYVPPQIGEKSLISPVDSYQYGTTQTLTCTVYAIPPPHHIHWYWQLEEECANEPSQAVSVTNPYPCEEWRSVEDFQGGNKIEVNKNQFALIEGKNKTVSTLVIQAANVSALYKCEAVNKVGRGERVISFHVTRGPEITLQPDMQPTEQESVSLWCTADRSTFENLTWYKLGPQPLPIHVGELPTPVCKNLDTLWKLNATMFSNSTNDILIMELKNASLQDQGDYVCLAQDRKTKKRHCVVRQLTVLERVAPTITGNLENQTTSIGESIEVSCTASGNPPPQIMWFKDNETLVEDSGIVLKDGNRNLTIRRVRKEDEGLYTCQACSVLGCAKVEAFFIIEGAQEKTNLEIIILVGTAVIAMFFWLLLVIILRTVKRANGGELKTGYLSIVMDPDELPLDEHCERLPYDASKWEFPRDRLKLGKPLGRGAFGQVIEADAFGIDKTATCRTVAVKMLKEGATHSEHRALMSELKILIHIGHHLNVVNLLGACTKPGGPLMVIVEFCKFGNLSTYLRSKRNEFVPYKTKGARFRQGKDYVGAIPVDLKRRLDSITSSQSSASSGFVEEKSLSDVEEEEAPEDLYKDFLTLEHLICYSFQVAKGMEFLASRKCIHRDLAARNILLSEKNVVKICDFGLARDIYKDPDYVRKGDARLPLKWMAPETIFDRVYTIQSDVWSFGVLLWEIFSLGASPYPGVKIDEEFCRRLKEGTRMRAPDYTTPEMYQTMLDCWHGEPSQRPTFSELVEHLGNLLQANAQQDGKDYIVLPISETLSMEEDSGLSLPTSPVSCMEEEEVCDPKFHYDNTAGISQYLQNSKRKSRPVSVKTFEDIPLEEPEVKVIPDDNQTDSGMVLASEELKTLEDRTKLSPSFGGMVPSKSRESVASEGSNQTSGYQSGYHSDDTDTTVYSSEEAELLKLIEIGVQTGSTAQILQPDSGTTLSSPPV

Sequence of EGFR (P00533 25-1210): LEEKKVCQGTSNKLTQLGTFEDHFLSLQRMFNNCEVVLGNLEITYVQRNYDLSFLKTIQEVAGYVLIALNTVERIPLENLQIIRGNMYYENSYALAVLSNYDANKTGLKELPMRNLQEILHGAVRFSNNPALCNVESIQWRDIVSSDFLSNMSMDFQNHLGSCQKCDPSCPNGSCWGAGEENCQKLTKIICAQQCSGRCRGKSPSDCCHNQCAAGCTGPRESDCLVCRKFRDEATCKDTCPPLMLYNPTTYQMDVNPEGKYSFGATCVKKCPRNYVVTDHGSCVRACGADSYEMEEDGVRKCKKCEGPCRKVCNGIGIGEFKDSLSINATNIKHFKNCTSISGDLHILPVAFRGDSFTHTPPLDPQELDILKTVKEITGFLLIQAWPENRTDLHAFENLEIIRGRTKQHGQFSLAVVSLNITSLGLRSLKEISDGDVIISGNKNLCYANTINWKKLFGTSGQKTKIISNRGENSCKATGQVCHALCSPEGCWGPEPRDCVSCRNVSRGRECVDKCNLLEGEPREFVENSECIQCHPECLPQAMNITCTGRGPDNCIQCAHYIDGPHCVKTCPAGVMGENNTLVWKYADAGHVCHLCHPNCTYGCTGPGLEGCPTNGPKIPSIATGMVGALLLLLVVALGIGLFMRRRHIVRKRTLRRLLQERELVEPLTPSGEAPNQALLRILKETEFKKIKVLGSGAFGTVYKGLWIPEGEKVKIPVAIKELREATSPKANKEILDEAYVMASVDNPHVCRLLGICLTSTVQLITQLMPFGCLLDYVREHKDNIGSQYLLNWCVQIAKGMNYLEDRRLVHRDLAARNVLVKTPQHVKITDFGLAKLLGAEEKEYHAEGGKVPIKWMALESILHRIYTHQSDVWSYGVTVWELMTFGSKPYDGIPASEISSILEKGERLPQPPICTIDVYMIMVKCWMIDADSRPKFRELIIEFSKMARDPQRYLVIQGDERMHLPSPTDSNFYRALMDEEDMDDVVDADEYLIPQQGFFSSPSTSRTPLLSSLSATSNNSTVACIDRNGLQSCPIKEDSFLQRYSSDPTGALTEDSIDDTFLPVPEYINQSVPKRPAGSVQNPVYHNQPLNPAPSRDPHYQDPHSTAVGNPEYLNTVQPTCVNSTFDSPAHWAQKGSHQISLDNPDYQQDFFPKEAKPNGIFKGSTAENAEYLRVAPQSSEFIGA

SMILES: CN(Cc1cnc2nc(N)nc(N)c2n1)c1ccc(C(=O)N[C@@H](CCC(=O)O)C(=O)O)cc1 [MTX, methotrexate]
B16-F10 primary tumor growth [1]: slightly better at inhibiting primary tumor growth as compared to 8 | decrease in vascular density of B16-F10 tumors ([1]; compared to solvent treated animals): statistically significant | tumor volume ([1]; compared to untreated animals): significantly less increase in tumor volume

EGFR inhibition, fold less active than 12 (EGFR): 1.7 fold
SMILES: CC(C)(C)C(=O)Nc1nc(Nc2ccc(F)c(C(F)(F)F)c2)c2cc(CCc3ccccn3)[nH]c2n1 [Compound 18, N-{4-[(3-trifluoromethyl,4-fluorophenyl)amino]-6-(2-pyridin-2-yl-ethyl)-7H-pyrrolo[2,3-d]pyrimidin-2-yl}-2,2-dimethylpropanamide]

EGFR inhibitory assay, result in words (EGFR): inactive
SMILES: C#Cc1cccc(Nc2nc(NC(=O)C(C)(C)C)nc3[nH]c(CCc4ccccn4)cc23)c1 [Compound 16, N-{4-[(3-ethynylphenyl)amino]-6-(2-pyridin-2-yl-ethyl)-7H-pyrrolo[2,3-d]pyrimidin-2-yl}-2,2-dimethylpropanamide]

EGFR inhibition improved, fold compared to the corresponding 2-amino analog (EGFR): 1.4 fold
SMILES: CC(C)(C)C(=O)Nc1nc(Nc2cccc(C(F)(F)F)c2)c2cc(CCc3ccccn3)[nH]c2n1 [Compound 17, N-{4-[(3-trifluoromethylphenyl)amino]-6-(2-pyridin-2-yl-ethyl)-7H-pyrrolo[2,3-d]pyrimidin-2-yl}-2,2-dimethylpropanamide]

EGFR inhibition improved, fold compared to the corresponding 2-amino analog (EGFR): 6.5 fold
SMILES: CC(C)(C)C(=O)Nc1nc(Nc2ccc(F)c(Cl)c2)c2cc(CCc3ccccn3)[nH]c2n1 [Compound 15, N-{4-[(3-chloro,4-fluorophenyl)amino]-6-(2-pyridin-2-yl-ethyl)-7H-pyrrolo[2,3-d]pyrimidin-2-yl}-2,2-dimethylpropanamide]

SMILES: Nc1nc(Nc2ccc(F)c(Br)c2)c2cc(CCc3ccccn3)[nH]c2n1 [Compound 8, N^4-(3-bromo,4-fluorophenyl)-6-(2-pyridin-2-yl-ethyl)-7H-pyrrolo[2,3-d]pyrimidine-2,4-diamine]
CAM angiogenesis assay, fold better than semaxanib (27) [2]: 1.2 fold | weight loss ([3]; 7.5 or 10 mg/kg twice weekly, compared to untreated): no weight loss | weight loss ([3]; 20, 17, and 15 mg/kg twice weekly, 6 week time point): significant | VEGFR-2 inhibition, fold improvement in activity compared to 7 (VEGFR-2): 2 fold

EGFR inhibition improved, fold compared to the corresponding 2-amino analog (EGFR): 16 fold
SMILES: CC(C)(C)C(=O)Nc1nc(Nc2ccc(F)c(Br)c2)c2cc(CCc3ccccn3)[nH]c2n1 [Compound 14, N-{4-[(3-bromo,4-fluorophenyl)amino]-6-(2-pyridin-2-yl-ethyl)-7H-pyrrolo[2,3-d]pyrimidin-2-yl}the-2,2-dimethylpropanamide]
